Test: mn = molality of the nth substance listed, in mol/kg
Settings: 350 kPa, Liquid, Extra sensitive DSC

NC(CO)C(=O)O (configuration not stated) [(.+-.)-serine] + O
apparent molar heat capacity [J/K/mol]
Settings | m1 = 0.015 | m1 = 0.0308 | m1 = 0.0509 | m1 = 0.0807 | m1 = 0.1251 | m1 = 0.2505
278.15 K | 50 | 53.4 | 56.4 | 56.6 | 57.8 | 68
283.15 K | 71 | 74.1 | 76.7 | 76.7 | 77.7 | 86.3
288.15 K | 87 | 90.3 | 92.6 | 92.6 | 93.2 | 101
293.15 K | 101 | 103.7 | 105.7 | 105.8 | 106.1 | 113.1
298.15 K | 112 | 114.5 | 116.5 | 116.5 | 116.7 | 123
303.15 K | 121 | 123.9 | 125.8 | 125.7 | 125.7 | 131.4
308.15 K | 130 | 132.2 | 133.9 | 133.6 | 133.4 | 138.6
313.15 K | 137 | 139.3 | 140.7 | 140.4 | 140.2 | 144.9
318.15 K | 143 | 145.2 | 146.5 | 146.2 | 145.8 | 150.2
323.15 K | 149 | 150.3 | 151.6 | 151.3 | 150.9 | 154.9
328.15 K | 154 | 155 | 156.2 | 155.8 | 155.3 | 158.9
333.15 K | 158 | 159.4 | 160.4 | 159.9 | 159.3 | 162.6
338.15 K | 162 | 163.3 | 164.2 | 163.6 | 162.9 | 165.92
343.15 K | 166 | 166.3 | 167.2 | 166.6 | 165.9 | 168.74
348.15 K | 168 | 169 | 170.1 | 169.5 | 168.8 | 171.27
353.15 K | 170 | 171.6 | 172.5 | 172.1 | 171.2 | 173.56
358.15 K | 172 | 173.7 | 174.6 | 174 | 173.1 | 175.45
363.15 K | 174 | 175.7 | 176.6 | 176.2 | 175.3 | 177.16
368.15 K | 175 | 177.9 | 178.6 | 178.4 | 177 | 178.66
373.15 K | 177 | 179.9 | 180.5 | 179.7 | 178.2 | 179.8
378.15 K | 177 | 180.9 | 181.3 | 180.7 | 179.3 | 180.67
383.15 K | 177 | 181.7 | 182.2 | 181.5 | 180.2 | 181.46
388.15 K | 175 | 182.6 | 183 | 182.2 | 180.9 | 181.91
393.15 K | 173 | 183.3 | 183.3 | 182.8 | 181.6 | 182.2

N[C@H](CO)C(=O)O [(R)-(-)-serine] + O
apparent molar heat capacity [J/K/mol]
Settings | m1 = 0.0151 | m1 = 0.0301 | m1 = 0.0501 | m1 = 0.08 | m1 = 0.1251 | m1 = 0.2505 | m1 = 0.35
278.15 K | 54.5 | 55.7 | 56.5 | 58.3 | 60.7 | 66.74 | 71.19
283.15 K | 75.2 | 76.1 | 76.8 | 78.4 | 80.6 | 85.06 | 89.13
288.15 K | 91.1 | 92.2 | 92.8 | 94.4 | 96.3 | 100.09 | 103.68
293.15 K | 104.3 | 105.4 | 106.1 | 107.6 | 109.2 | 112.47 | 115.73
298.15 K | 114.8 | 116.1 | 116.8 | 118.3 | 119.8 | 122.69 | 125.65
303.15 K | 123.8 | 125.6 | 126.3 | 127.5 | 128.8 | 131.45 | 134.16
308.15 K | 132.3 | 133.5 | 134.1 | 135.4 | 136.6 | 138.97 | 141.5
313.15 K | 139.7 | 140.5 | 141 | 142.1 | 143.3 | 145.58 | 147.86
318.15 K | 145.3 | 146.2 | 146.7 | 147.9 | 149 | 151.1 | 153.28
323.15 K | 150 | 151.2 | 151.8 | 153 | 154.1 | 156.06 | 158.13
328.15 K | 155 | 156 | 156.5 | 157.5 | 158.6 | 160.5 | 162.4
333.15 K | 159 | 160.2 | 160.7 | 161.7 | 162.6 | 164.4 | 166.3
338.15 K | 163 | 163.7 | 164.2 | 165.2 | 166.2 | 167.9 | 169.76
343.15 K | 166 | 167 | 167.4 | 168.3 | 169.2 | 170.9 | 172.7
348.15 K | 169 | 170.1 | 170.4 | 171.1 | 172 | 173.7 | 175.4
353.15 K | 171 | 172.2 | 172.6 | 173.6 | 174.4 | 176.1 | 177.8
358.15 K | 174 | 174.3 | 174.9 | 175.8 | 176.7 | 178.3 | 180
363.15 K | 176 | 176.2 | 176.7 | 177.7 | 178.5 | 180.2 | 181.8
368.15 K | 177 | 177.8 | 178.2 | 179.2 | 180.1 | 181.7 | 183.4
373.15 K | 178 | 179.3 | 179.6 | 180.5 | 181.4 | 183.1 | 184.7
378.15 K | 180 | 180.4 | 180.7 | 181.6 | 182.5 | 184.2 | 185.8
383.15 K | 181 | 181 | 181.4 | 182.4 | 183.3 | 185.2 | 186.8
388.15 K | 181 | 182 | 182.1 | 183 | 184 | 186 | 187.4
393.15 K | 182 | 182 | 182.5 | 183.5 | 184.4 | 186.5 | 187.9

Source: the NIST ThermoML archive (doi:10.1016/j.jct.2005.07.019)
